Measurements from PubChem BioAssay AID220 (DTP/NCI, 2004).
“And” between values parts separate entries of the source, which are not always exact repeats. Equal values may be shown once. Results filed as inconclusive are left out.

System: CD8F1 mice, subcutaneous mammary adenocarcinoma, T/C%
Assay: NCI In Vivo Anticancer Drug Screen. Data for tumor model Mammary Adenocarcinoma CD8F1 (subcutaneous) in CD8F1
Conditions: higher = larger tumour
Summary of the method: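 Compound-treated versus vehicle-treated mice with transplantable tumors; survival or tumor size compared as T/C.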

[1] = endpoint: median tumor weight change, dose: 12.0 mg/kg/injection, schedule: Q01DX001 (ip), vehicle: saline with Tween-80
[2] = endpoint: median tumor weight (est.), dose: 100.0 mg/kg/injection, schedule: Q07DX005 (ip), vehicle: saline
[3] = endpoint: median tumor weight change, dose: 125.0 mg/kg/injection, schedule: Q01DX001 (ip), vehicle: saline with Tween-80
[4] = endpoint: median tumor weight change, dose: 62.5 mg/kg/injection, schedule: Q01DX001 (ip), vehicle: water
[5] = endpoint: median tumor weight (est.), dose: 6.25 mg/kg/injection, schedule: Q07DX005 (ip), vehicle: saline
[6] = endpoint: median tumor weight (est.), dose: 12.5 mg/kg/injection, schedule: Q07DX005 (ip), vehicle: saline
[7] = endpoint: median tumor weight (est.), dose: 25.0 mg/kg/injection, schedule: Q07DX005 (ip), vehicle: saline

In the case of `CCCCC[C@H](O)/C=C/[C@@H]1[C@@H](C/C=C\CCCC(=O)O)[C@@H](O)C[C@H]1O`, the T/C (endpoint: mean tumor weight, dose: 160.0 mg/kg/injection, schedule: Q01DX001 (iv), vehicle: saline) is reported as 93 % of control and the T/C (endpoint: mean tumor weight, dose: 320.0 mg/kg/injection, schedule: Q01DX001 (iv), vehicle: saline) is reported as 58 % of control.
In the case of `CC[N+](CC)(CC)CC`, the T/C (endpoint: median tumor weight (est.), dose: 0.78 mg/kg/injection, schedule: Q07DX005 (ip), vehicle: saline with Tween-80) is reported as 96 % of control, the T/C (endpoint: median tumor weight (est.), dose: 1.56 mg/kg/injection, schedule: Q07DX005 (ip), vehicle: saline with Tween-80) is reported as 71 % of control and 84 % of control and the T/C (endpoint: median tumor weight (est.), dose: 3.12 mg/kg/injection, schedule: Q07DX005 (ip), vehicle: saline with Tween-80) is reported as 21 % of control and 38 % of control. For the same compound, the T/C (endpoint: median tumor weight (est.), dose: 6.25 mg/kg/injection, schedule: Q07DX005 (ip), vehicle: saline with Tween-80) was 10 % of control and 27 % of control, the T/C (endpoint: median tumor weight change, dose: 5.0 mg/kg/injection, schedule: Q01DX001 (ip), vehicle: saline with Tween-80) was 38 % of control and the T/C (endpoint: median tumor weight change, dose: 10.0 mg/kg/injection, schedule: Q01DX001 (ip), vehicle: saline with Tween-80) was 20 % of control. The T/C [1] was 54 % of control and 61 % of control, the T/C (endpoint: median tumor weight change, dose: 15.0 mg/kg/injection, schedule: Q01DX001 (ip), vehicle: saline with Tween-80) was 86 % of control and the T/C (endpoint: median tumor weight change, dose: 20.0 mg/kg/injection, schedule: Q01DX001 (ip), vehicle: saline with Tween-80) was 22 % of control. For the same compound, the T/C (endpoint: median tumor weight change, dose: 30.0 mg/kg/injection, schedule: Q01DX001 (ip), vehicle: saline with Tween-80) was 15 % of control and the T/C (endpoint: median tumor weight change, dose: 40.0 mg/kg/injection, schedule: Q01DX001 (ip), vehicle: saline with Tween-80) was 8 % of control.
In the case of `CN(C)C=O`, the T/C [2] is reported as 78 % of control, the T/C (endpoint: median tumor weight (est.), dose: 400.0 mg/kg/injection, schedule: Q07DX005 (ip), vehicle: saline) is reported as 105 % of control and the T/C (endpoint: median tumor weight (est.), dose: 800.0 mg/kg/injection, schedule: Q07DX005 (ip), vehicle: saline) is reported as 96 % of control.
`CCCCCCCCCCCCCCCCS(=O)CC(O)COC(=O)c1ccc(C(=O)OCC(O)CS(=O)CCCCCCCCCCCCCCCC)cc1` (configuration not stated) was tested, and the T/C (endpoint: median tumor weight (est.), dose: 12.5 mg/kg/injection, schedule: Q07DX005 (ip), vehicle: saline + Tween-80 + alcohol) was 68 % of control and 88 % of control, the T/C (endpoint: median tumor weight (est.), dose: 25.0 mg/kg/injection, schedule: Q07DX005 (ip), vehicle: saline + Tween-80 + alcohol) was 69 % of control and 79 % of control and the T/C (endpoint: median tumor weight (est.), dose: 200.0 mg/kg/injection, schedule: Q07DX005 (ip), vehicle: saline + Tween-80 + alcohol) was 48 % of control and 64 % of control. For the same compound, the T/C (endpoint: median tumor weight (est.), dose: 400.0 mg/kg/injection, schedule: Q07DX005 (ip), vehicle: saline + Tween-80 + alcohol) was 78 % of control and 84 % of control.
With `O=C(NO)c1ccc(O)c(O)c1` the T/C (endpoint: median tumor weight change, dose: 300.0 mg/kg/injection, schedule: Q01DX001 (ip), vehicle: water) was 89 % of control and the T/C (endpoint: median tumor weight change, dose: 600.0 mg/kg/injection, schedule: Q01DX001 (ip), vehicle: water) was 48 % of control.
With `O=C(O)c1ccc(C(=O)O)c(C(=O)O)c1.[NH-]C1CCCCC1[NH-].[Pt+2]` the T/C (endpoint: median tumor weight (est.), dose: 1.56 mg/kg/injection, schedule: Q07DX005 (ip), vehicle: sodium bicarbonate) was 38 % of control, the T/C (endpoint: median tumor weight (est.), dose: 3.12 mg/kg/injection, schedule: Q07DX005 (ip), vehicle: sodium bicarbonate) was 24 % of control and the T/C (endpoint: median tumor weight (est.), dose: 6.25 mg/kg/injection, schedule: Q07DX005 (ip), vehicle: sodium bicarbonate) was 11 % of control. The T/C (endpoint: median tumor weight (est.), dose: 12.5 mg/kg/injection, schedule: Q07DX005 (ip), vehicle: sodium bicarbonate) was 11 % of control and the T/C (endpoint: median tumor weight (est.), dose: 25.0 mg/kg/injection, schedule: Q07DX005 (ip), vehicle: sodium bicarbonate) was 32 % of control.
With `CC(C)[NH-].CC(C)[NH-].[Cl][Pt+2][Cl]` the T/C (endpoint: median tumor weight (est.), dose: 3.12 mg/kg/injection, schedule: Q07DX005 (ip), vehicle: dextrose) was 106 % of control, the T/C (endpoint: median tumor weight (est.), dose: 6.25 mg/kg/injection, schedule: Q07DX005 (ip), vehicle: dextrose) was 80 % of control and the T/C (endpoint: median tumor weight (est.), dose: 12.5 mg/kg/injection, schedule: Q07DX005 (ip), vehicle: dextrose) was 42 % of control. The T/C (endpoint: median tumor weight (est.), dose: 25.0 mg/kg/injection, schedule: Q07DX005 (ip), vehicle: dextrose) was 76 % of control, the T/C (endpoint: median tumor weight (est.), dose: 50.0 mg/kg/injection, schedule: Q07DX005 (ip), vehicle: dextrose) was 27 % of control and the T/C (endpoint: median tumor weight (est.), dose: 100.0 mg/kg/injection, schedule: Q07DX005 (ip), vehicle: dextrose) was 42 % of control.
`O=CC(S)CO` (configuration not stated) was tested, and the T/C (endpoint: median tumor weight (est.), dose: 12.5 mg/kg/injection, schedule: Q07DX005 (ip), vehicle: suspension in saline) was 165 % of control, the T/C (endpoint: median tumor weight (est.), dose: 25.0 mg/kg/injection, schedule: Q07DX005 (ip), vehicle: suspension in saline) was 231 % of control and 88 % of control and the T/C (endpoint: median tumor weight (est.), dose: 50.0 mg/kg/injection, schedule: Q07DX005 (ip), vehicle: suspension in saline) was 112 % of control. The T/C (endpoint: median tumor weight (est.), dose: 200.0 mg/kg/injection, schedule: Q07DX005 (ip), vehicle: suspension in saline) was 102 % of control.
With `CCOC(=O)c1cn(C)c2c1C(O)=C(C(=O)OC)CC(=O)N2` the T/C [3] was 79 % of control, the T/C (endpoint: median tumor weight change, dose: 250.0 mg/kg/injection, schedule: Q01DX001 (ip), vehicle: saline with Tween-80) was 97 % of control and the T/C (endpoint: median tumor weight change, dose: 500.0 mg/kg/injection, schedule: Q01DX001 (ip), vehicle: saline with Tween-80) was 83 % of control. The T/C (endpoint: median tumor weight change, dose: 1000.0 mg/kg/injection, schedule: Q01DX001 (ip), vehicle: saline with Tween-80) was 95 % of control.
For `CNC(=O)c1cccc2c(Nc3ccc(NS(C)(=O)=O)cc3OC)c3cccc(C)c3nc12`, the T/C (endpoint: median tumor weight change, dose: 60.0 mg/kg/injection, schedule: Q01DX001 (ip), vehicle: water) was 6 % of control, the T/C [4] was -63 % of control and the T/C (endpoint: median tumor weight change, dose: 120.0 mg/kg/injection, schedule: Q01DX001 (ip), vehicle: other) was -68 % of control.
For `CC[C@@]1(O)C(=O)OCc2c1cc1n(c2=O)Cc2cc3ccccc3nc2-1`, the T/C (endpoint: median tumor weight change, dose: 1.5 mg/kg/injection, schedule: Q01DX001 (ip), vehicle: saline with Tween-80) was 64 % of control, the T/C (endpoint: median tumor weight change, dose: 6.0 mg/kg/injection, schedule: Q01DX001 (ip), vehicle: saline with Tween-80) was 56 % of control and 73 % of control and the T/C [1] was 62 % of control. The T/C (endpoint: median tumor weight change, dose: 24.0 mg/kg/injection, schedule: Q01DX001 (ip), vehicle: saline with Tween-80) was 5 % of control and 10 % of control.
In the case of `NC(Cc1cc([N+](=O)[O-])ccc1CN(CCCl)CCCl)C(=O)O` (configuration not stated), the T/C (endpoint: median tumor weight (est.), dose: 2.0 mg/kg/injection, schedule: Q07DX005 (ip), vehicle: Klucel (hydroxypropylcellulose) (HPC)) is reported as 8 % of control.
For `O=C(Nc1ccc(Cl)c(Cl)c1)Nc1c(Oc2ccc(Cl)c(Cl)c2)ccc(Cl)c1S(=O)(=O)O`, the T/C (endpoint: median tumor weight (est.), dose: 6.25 mg/kg/injection, schedule: Q07DX005 (ip), vehicle: Klucel (hydroxypropylcellulose) (HPC)) was 114 % of control, the T/C [5] was 78 % of control and the T/C (endpoint: median tumor weight (est.), dose: 12.5 mg/kg/injection, schedule: Q07DX005 (ip), vehicle: Klucel (hydroxypropylcellulose) (HPC)) was 244 % of control. The T/C [6] was 123 % of control, the T/C (endpoint: median tumor weight (est.), dose: 25.0 mg/kg/injection, schedule: Q07DX005 (ip), vehicle: Klucel (hydroxypropylcellulose) (HPC)) was 110 % of control and the T/C [7] was 123 % of control. The T/C (endpoint: median tumor weight (est.), dose: 50.0 mg/kg/injection, schedule: Q07DX005 (ip), vehicle: Klucel (hydroxypropylcellulose) (HPC)) was 318 % of control, the T/C (endpoint: median tumor weight (est.), dose: 100.0 mg/kg/injection, schedule: Q07DX005 (ip), vehicle: Klucel (hydroxypropylcellulose) (HPC)) was 65 % of control and the T/C [2] was 121 % of control. For the same compound, the T/C (endpoint: median tumor weight (est.), dose: 200.0 mg/kg/injection, schedule: Q07DX005 (ip), vehicle: Klucel (hydroxypropylcellulose) (HPC)) was 323 % of control and the T/C (endpoint: median tumor weight (est.), dose: 200.0 mg/kg/injection, schedule: Q07DX005 (ip), vehicle: saline) was 114 % of control.
`NC(C(=O)O)c1ccc(CBr)cc1` (configuration not stated) was tested, and the T/C [3] was 106 % of control.
With `Cc1ccccc1-[n+]1noc(N)n1` the T/C (endpoint: median tumor weight change, dose: 31.25 mg/kg/injection, schedule: Q01DX001 (ip), vehicle: water) was 72 % of control, the T/C [4] was 87 % of control and the T/C (endpoint: median tumor weight change, dose: 125.0 mg/kg/injection, schedule: Q01DX001 (ip), vehicle: water) was 29 % of control.
For `CNc1nc(N(C)C)nc(N(C)C)n1`, the T/C (endpoint: median tumor weight (est.), dose: 3.12 mg/kg/injection, schedule: Q07DX005 (ip), vehicle: saline) was 89 % of control, the T/C [5] was 111 % of control and the T/C [6] was 75 % of control. The T/C (endpoint: median tumor weight (est.), dose: 12.5 mg/kg/injection, schedule: Q07DX005 (ip), vehicle: water) was 65 % of control, the T/C [7] was 108 % of control and the T/C (endpoint: median tumor weight (est.), dose: 25.0 mg/kg/injection, schedule: Q07DX005 (ip), vehicle: water) was 94 % of control. The T/C (endpoint: median tumor weight (est.), dose: 50.0 mg/kg/injection, schedule: Q07DX005 (ip), vehicle: saline) was 63 % of control, the T/C (endpoint: median tumor weight (est.), dose: 50.0 mg/kg/injection, schedule: Q07DX005 (ip), vehicle: water) was 13 % of control and the T/C (endpoint: median tumor weight (est.), dose: 74.0 mg/kg/injection, schedule: Q07DX005 (ip), vehicle: other) was 33 % of control. For the same compound, the T/C [2] was 48 % of control, the T/C (endpoint: median tumor weight (est.), dose: 100.0 mg/kg/injection, schedule: Q07DX005 (ip), vehicle: water) was 28 % of control and the T/C (endpoint: median tumor weight (est.), dose: 148.0 mg/kg/injection, schedule: Q07DX005 (ip), vehicle: other) was 47 % of control. For the same compound, the T/C (endpoint: median tumor weight (est.), dose: 222.0 mg/kg/injection, schedule: Q07DX005 (ip), vehicle: other) was 7 % of control.
